Source: PubChem BioAssay (NCI)
Where “and” joins values, the source holds several entries; their conditions need not be identical. Identical values can stand only once.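 Five compound concentrations were applied to cells in 96-well plates for 48 hours; endpoints were derived by simple linear interpolation of the resulting dose-response curve. GI50 = concentration required for 50% inhibition of growth. The concentration for full growth arrest is given as TGI.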

Legend:
Test in all cases: NCI-60 cell line screen, 48 h
786-0 renal = test system: 786-0 renal
A498 renal = test system: A498 renal
ACHN renal = test system: ACHN renal
CCRF-CEM leukemia = test system: CCRF-CEM leukemia
COLO 205 colon = test system: COLO 205 colon
HL-60(TB) leukemia = test system: HL-60(TB) leukemia
HOP-62 NSCLC = test system: HOP-62 NSCLC
HOP-92 NSCLC = test system: HOP-92 NSCLC
HT29 colon = test system: HT29 colon
IGROV1 ovarian = test system: IGROV1 ovarian
K-562 leukemia = test system: K-562 leukemia
KM12 colon = test system: KM12 colon
KM20L2 colon = test system: KM20L2 colon
LXFL 529 NSCLC = test system: LXFL 529 NSCLC
M14 melanoma = test system: M14 melanoma
M19-MEL melanoma = test system: M19-MEL melanoma
MALME-3M melanoma = test system: MALME-3M melanoma
NCI-H23 lung = test system: NCI-H23 lung
NCI-H460 lung = test system: NCI-H460 lung
NCI-H522 lung = test system: NCI-H522 lung
OVCAR-3 ovarian = test system: OVCAR-3 ovarian
OVCAR-4 ovarian = test system: OVCAR-4 ovarian
OVCAR-5 ovarian = test system: OVCAR-5 ovarian
RPMI-8226 leukemia = test system: RPMI-8226 leukemia
RXF 393 renal = test system: RXF 393 renal
SF-268 CNS = test system: SF-268 CNS
SF-295 CNS = test system: SF-295 CNS
SF-539 CNS = test system: SF-539 CNS
SK-MEL-2 melanoma = test system: SK-MEL-2 melanoma
SK-MEL-28 melanoma = test system: SK-MEL-28 melanoma
SK-OV-3 ovarian = test system: SK-OV-3 ovarian
SNB-19 CNS = test system: SNB-19 CNS
SNB-75 CNS = test system: SNB-75 CNS
SNB-78 CNS = test system: SNB-78 CNS
U251 CNS = test system: U251 CNS
UACC-257 melanoma = test system: UACC-257 melanoma
UACC-62 melanoma = test system: UACC-62 melanoma
UO-31 renal = test system: UO-31 renal
A549 NSCLC = test system: A549 NSCLC
BT-549 breast = test system: BT-549 breast
CAKI-1 renal = test system: CAKI-1 renal
DU-145 prostate = test system: DU-145 prostate
EKVX NSCLC = test system: EKVX NSCLC
HCT-116 colon = test system: HCT-116 colon
HCT-15 colon = test system: HCT-15 colon
HS 578T breast = test system: HS 578T breast
LOX IMVI melanoma = test system: LOX IMVI melanoma
MCF7 breast = test system: MCF7 breast
MDA-MB-231 breast = test system: MDA-MB-231 breast
MDA-MB-435 = test system: MDA-MB-435
MDA-N = test system: MDA-N
NCI-H226 lung = test system: NCI-H226 lung
NCI/ADR-RES ovarian = test system: NCI/ADR-RES ovarian
OVCAR-8 ovarian = test system: OVCAR-8 ovarian
PC-3 prostate = test system: PC-3 prostate
SK-MEL-5 melanoma = test system: SK-MEL-5 melanoma
SN12C renal = test system: SN12C renal
SR leukemia = test system: SR leukemia
SW-620 colon = test system: SW-620 colon
T-47D breast = test system: T-47D breast
TK-10 renal = test system: TK-10 renal

CCN(CC)CCN1C(=O)CC2[C@@H]3CCc4cc(OC)ccc4C3CC[C@]2(C)C1=O (some centres not stated)
TGI (786-0 renal): 31.1 µM
TGI (A498 renal): > 100 µM
TGI (ACHN renal): > 100 µM
TGI (CCRF-CEM leukemia): 39.2 µM
TGI (COLO 205 colon): 39.1 µM
TGI (HL-60(TB) leukemia): 36.7 µM
TGI (HOP-62 NSCLC): 54.2 µM
TGI (HOP-92 NSCLC): > 100 µM
TGI (HT29 colon): 41.4 µM
TGI (IGROV1 ovarian): > 100 µM
TGI (K-562 leukemia): 36.1 µM
TGI (KM12 colon): > 100 µM
TGI (KM20L2 colon): 46 µM
TGI (LXFL 529 NSCLC): 30.9 µM
TGI (M14 melanoma): 33.1 µM
TGI (M19-MEL melanoma): 35.8 µM
TGI (MALME-3M melanoma): 33.4 µM
TGI (NCI-H23 lung): > 100 µM
TGI (NCI-H460 lung): > 100 µM
TGI (NCI-H522 lung): 53.7 µM
TGI (OVCAR-3 ovarian): > 100 µM
TGI (OVCAR-4 ovarian): > 100 µM
TGI (OVCAR-5 ovarian): > 100 µM
TGI (RPMI-8226 leukemia): 66 µM
TGI (RXF 393 renal): 92.3 µM
TGI (SF-268 CNS): > 100 µM
TGI (SF-295 CNS): 37.6 µM
TGI (SF-539 CNS): 19.5 µM
TGI (SK-MEL-2 melanoma): 37.4 µM
TGI (SK-MEL-28 melanoma): 33.1 µM
TGI (SK-OV-3 ovarian): > 100 µM
TGI (SNB-19 CNS): > 100 µM
TGI (SNB-75 CNS): > 100 µM
TGI (SNB-78 CNS): > 100 µM
TGI (U251 CNS): > 100 µM
TGI (UACC-257 melanoma): 30.2 µM
TGI (UACC-62 melanoma): 36 µM
TGI (UO-31 renal): 64.6 µM

S=C(S)N1CCCCC1
GI50 (786-0 renal): 12.9 µM and 64.5 µM
TGI (786-0 renal): > 406 µM
GI50 (A549 NSCLC): 71.6 µM
TGI (A549 NSCLC): > 406 µM
GI50 (ACHN renal): 19.6 µM and 54.3 µM
TGI (ACHN renal): > 406 µM
TGI (BT-549 breast): > 406 µM
GI50 (CAKI-1 renal): 19.9 µM
TGI (CAKI-1 renal): 99.1 µM and > 406 µM
TGI (COLO 205 colon): 82.7 µM
TGI (DU-145 prostate): > 406 µM
GI50 (EKVX NSCLC): 46.5 µM
TGI (EKVX NSCLC): > 406 µM
GI50 (HCT-116 colon): 12 µM
TGI (HCT-116 colon): 26.2 µM and 45.3 µM
GI50 (HCT-15 colon): 25.3 µM and 22.8 µM
TGI (HCT-15 colon): 177 µM
GI50 (HOP-62 NSCLC): 17 µM
TGI (HOP-62 NSCLC): > 406 µM
GI50 (HOP-92 NSCLC): 24.9 µM and 116 µM
TGI (HOP-92 NSCLC): > 406 µM
TGI (HS 578T breast): > 406 µM
GI50 (IGROV1 ovarian): 55.2 µM and 10.5 µM
TGI (IGROV1 ovarian): 100 µM
GI50 (K-562 leukemia): > 406 µM
GI50 (KM12 colon): 50.2 µM and 51.8 µM
TGI (KM12 colon): 137 µM
GI50 (LOX IMVI melanoma): 11.2 µM and 8.18 µM
TGI (LOX IMVI melanoma): 26.6 µM and 16.3 µM
GI50 (M14 melanoma): 10.9 µM
TGI (M14 melanoma): 85.7 µM and 29.7 µM
TGI (M19-MEL melanoma): > 46.9 µM
GI50 (MALME-3M melanoma): 40.6 µM and 129 µM
TGI (MALME-3M melanoma): 64.8 µM and > 406 µM
TGI (MCF7 breast): 88.3 µM
TGI (MDA-MB-231 breast): > 406 µM
GI50 (MDA-MB-435): 20.4 µM
TGI (MDA-MB-435): 67.9 µM and > 406 µM
GI50 (MDA-N): 70.4 µM
TGI (MDA-N): 46.6 µM
GI50 (NCI-H226 lung): 42.4 µM
TGI (NCI-H226 lung): > 406 µM
GI50 (NCI-H23 lung): 36.6 µM
TGI (NCI-H23 lung): > 406 µM
TGI (NCI-H460 lung): 85 µM
GI50 (NCI-H522 lung): 28 µM
GI50 (NCI/ADR-RES ovarian): 20.8 µM
TGI (NCI/ADR-RES ovarian): 93.5 µM and 173 µM
TGI (OVCAR-3 ovarian): > 406 µM
GI50 (OVCAR-4 ovarian): 51 µM
TGI (OVCAR-4 ovarian): 295 µM
TGI (OVCAR-5 ovarian): > 406 µM
GI50 (OVCAR-8 ovarian): 22.9 µM and 15.9 µM
TGI (OVCAR-8 ovarian): > 406 µM
TGI (PC-3 prostate): 70.4 µM and > 406 µM
TGI (RPMI-8226 leukemia): 68.3 µM and > 406 µM
TGI (RXF 393 renal): > 406 µM
GI50 (SF-268 CNS): 26 µM and 106 µM
TGI (SF-268 CNS): > 406 µM
GI50 (SF-295 CNS): 34 µM and 39.3 µM
TGI (SF-295 CNS): > 406 µM
GI50 (SF-539 CNS): 32.3 µM and 22.7 µM
TGI (SF-539 CNS): 83.3 µM and > 406 µM
GI50 (SK-MEL-2 melanoma): 28.2 µM and 54.1 µM
TGI (SK-MEL-2 melanoma): 84.6 µM and 179 µM
GI50 (SK-MEL-28 melanoma): 89 µM
TGI (SK-MEL-28 melanoma): > 406 µM
TGI (SK-MEL-5 melanoma): 81.5 µM
TGI (SK-OV-3 ovarian): 353 µM
GI50 (SN12C renal): 89.7 µM and 49.8 µM
TGI (SN12C renal): > 406 µM
TGI (SNB-19 CNS): > 406 µM
GI50 (SNB-75 CNS): 28 µM
TGI (SNB-75 CNS): > 406 µM
GI50 (SR leukemia): 17.5 µM and 80.7 µM
TGI (SR leukemia): 67 µM and > 406 µM
GI50 (SW-620 colon): 21.6 µM and 18.4 µM
TGI (SW-620 colon): 66.1 µM and 63.6 µM
GI50 (T-47D breast): 45.7 µM
TGI (T-47D breast): 299 µM
TGI (TK-10 renal): > 406 µM
GI50 (U251 CNS): 60.3 µM
TGI (U251 CNS): > 406 µM
GI50 (UACC-257 melanoma): 30.7 µM and 38 µM
TGI (UACC-257 melanoma): > 406 µM
GI50 (UACC-62 melanoma): 19.8 µM
TGI (UACC-62 melanoma): > 46.3 µM and 82.5 µM
GI50 (UO-31 renal): 20.9 µM
TGI (UO-31 renal): 55.5 µM and 398 µM
